Values quoted from earlier work, collected in patent US6680306B2, “Method for enhancing the effectiveness of cancer therapies” (GlycoGenesys, Inc., priority 2001, dated 2004).

Assays:
BT549 cells = conditions: BT549 human breast epithelial cell line that does not express detectable levels of galectin-3
[1] = tested on: galectin-3 transfected BT549 cells; conditions: galectin-3 transfected BT549 cells treated with genistein

Question: With `O=c1c(-c2ccc(O)cc2)coc2cc(O)cc(O)c12` [genistein] as the compound, how does the apoptosis induction (BT549 cells) read?
Answer: effectively induces apoptosis, without detectable cell cycle arrest

Question: What about the “cell cycle arrest / apoptosis induction” value [1] of the same compound?
Answer: cell cycle arrest at the G(2)/M phase takes place without apoptosis induction
